The values below come from paper PMC8858684 (FEBS letters, 2021).

The target of the assay is CTX-M-14 β-lactamase (Escherichia coli, UniProt Q9L5C7). The experiment in a line: hydrolysis kinetics. The class given is biochemical. The conditions noted are these: read-out: Cefotaxime / Km; purified enzyme.

Turning to `CO/N=C(\C(=O)N[C@@H]1C(=O)N2C(C(=O)O)=C(COC(C)=O)CS[C@H]12)c1csc(N)n1` [cefotaxime], the Km turned out to be 83.8 ± 2.3 µM.
